Tests used:
[1] = system: ethylene-induced epinasty in Patio variety tomato plants; test: Tomato epinasty test, volatile gas treatment; format: in vivo; details: for Gas @ 10 ppm: visual rating of protection against ethylene-induced epinasty: gas 10 ppm v/v, 10 ppm ethylene, scale 0 to 10 (10 = complete protection); for Gas @ 1000 ppm: visual rating of protection against ethylene-induced epinasty: gas 1000 ppm v/v, 10 ppm ethylene after 4 h, scored 16 h later, scale 0 (no protection) to 10 (complete protection); for Gas, tested at 850 ppm: rating of protection against epinasty: gas 850 ppm (footnote b or in cell)
Experimental: (§1) Objective: The test procedure is designed to determine the ability of an experimental compound to block the epinastic growth response induced by ethylene in tomato plants when the experimental compound is administered either as a volatile gas or as a component of a spray solution.
(§2) Treatment chambers are of an appropriate size for the test plants and are airtight. Each is fitted with a reusable septum to be used for injection of ethylene. Test plants are Patio variety tomato seedlings planted two plants per three inch square plastic pot.
Volatile gas treatment entails placing two pots of Patio var. tomatoes into a polystyrene 4.8 L volume treatment chamber along with one-half (upper or lower section) of a 50×9 mm plastic Petri dish containing a Gelman filter pad. The appropriate amount of experimental compound, dissolved in 1.0 ml acetone, is pipetted onto the filter pad and the chamber immediately sealed. Four hours later ethylene gas equal to 10 ppm v/v final concentration is injected into the sealed chamber. Sixteen hours later the chambers are opened in an exhaust hood, allowed to air and the plants scored visually for the degree of protection against ethylene-induced epinasty conferred by the experimental compound when compared to ethylene treated and untreated controls on a scale of 0 to 10. A rating of 10 means complete protection. A rating of 0 means no protection from the effects of ethylene. Gas treatment concentrations are volume/volume.

[2] = system: ethylene-induced epinasty in Patio variety tomato plants; test: Tomato epinasty test, spray application treatment; format: in vivo; details: spray 10 ppm in 10% acetone/90% water, 0.05% Silwett L-77; 10 ppm ethylene; scale 0 to 10 (10 = complete protection)
Experimental: as §1, §2
Spray application treatment entails using a DeVilbiss atomizer to completely cover all foliage and stems of two pots of Patio var. tomato plants with the appropriate amount of experimental compound dissolved in 10% acetone/90% water with 0.05% Silwett L-77 surfactant. Plants are air-dried in a drying hood for four hours then transferred to a 4.8 L polystyrene chamber which is sealed.
Ethylene gas equal to 10 ppm v/v final concentration is injected into the sealed chamber. Sixteen hours later the chambers are opened in an exhaust hood, allowed to air and the plants scored visually for the degree of protection against ethylene-induced epinasty conferred by the experimental compound when compared to ethylene treated and untreated controls on a scale of 0 to 10. A rating of 10 means complete protection. A rating of 0 means no protection from the effects of ethylene.

CCC1=C(n2cc(Br)cn2)C1 [Compound 11, 2-(1-(4-Bromopyrazole))-1-ethylcyclopropene]
Gas @ 10 ppm: visual rating of protection against ethylene-induced epinasty [1]: 2
Gas, tested at 600 ppm: rating of protection against epinasty ([1]; gas 600 ppm (footnote a), scale 0 to 10): 8^a
Spray @10 ppm: visual rating of protection against ethylene-induced epinasty [2]: 0

C1=C(CCCCc2ccccc2)C1 [Compound 27]
Gas @ 10 ppm: visual rating of protection against ethylene-induced epinasty [1]: 10
Spray @10 ppm: visual rating of protection against ethylene-induced epinasty [2]: 10

C(CCCCCCC1=CC1)=NN1CCCCC1 [Compound 36, 1-(7-(N-piperidinoimino-heptyl))-cyclopropene]
Gas @ 10 ppm: visual rating of protection against ethylene-induced epinasty [1]: 5
Gas @ 500 ppm: rating of protection against epinasty ([1]; scale 0 to 10): 10^c^
Spray @10 ppm: visual rating of protection against ethylene-induced epinasty [2]: 3

C1=C(CCSc2ccncc2)C1 [Compound 43]
Gas @ 10 ppm: visual rating of protection against ethylene-induced epinasty [1]: 10
Spray @10 ppm: visual rating of protection against ethylene-induced epinasty [2]: 0

CCSCCCCCCCC1=CC1 [Compound 70, 1-(7-Ethanethioheptyl)-cyclopropene]
Gas @ 10 ppm: visual rating of protection against ethylene-induced epinasty [1]: 2
Spray @10 ppm: visual rating of protection against ethylene-induced epinasty [2]: 10

Cc1ccc(CC2=CC2)cc1 [Compound 24]
Gas @ 10 ppm: visual rating of protection against ethylene-induced epinasty [1]: 10
Spray @10 ppm: visual rating of protection against ethylene-induced epinasty [2]: 10

CS(=O)(=O)OCCCCCCCC1=CC1 [Compound 69, 1-(7-Methanesulfonyloxyheptyl)-cyclopropene]
Gas @ 10 ppm: visual rating of protection against ethylene-induced epinasty [1]: 0
Gas @ 1000 ppm: visual rating of protection against ethylene-induced epinasty [1]: 8
Spray @10 ppm: visual rating of protection against ethylene-induced epinasty [2]: 0

COc1ccccc1CC1=CC1 [Compound 26]
Gas @ 10 ppm: visual rating of protection against ethylene-induced epinasty [1]: 10
Spray @10 ppm: visual rating of protection against ethylene-induced epinasty [2]: 5

O=C(OCCCCCCCC1=CC1)C1CCCO1 (stereo not shown) [Compound 54]
Gas @ 10 ppm: visual rating of protection against ethylene-induced epinasty [1]: 0
Gas @ 1000 ppm: visual rating of protection against ethylene-induced epinasty [1]: 2
Spray @10 ppm: visual rating of protection against ethylene-induced epinasty [2]: 0

ClC1=C(Cc2ccccc2)C1 [Compound 46, 1-Benzyl-2-chlorocyclopropene]
Gas @ 10 ppm: visual rating of protection against ethylene-induced epinasty [1]: 5
Gas @ 1000 ppm: visual rating of protection against ethylene-induced epinasty [1]: 10
Spray @10 ppm: visual rating of protection against ethylene-induced epinasty [2]: 0

CCCCCCCCC1=C(B2OCO2)C1 [Compound 38, 2-Octyl-1-(2-(2-boro-1,3dioxetane))-cyclopropene]
Gas @ 10 ppm: visual rating of protection against ethylene-induced epinasty [1]: 3
Gas, tested at 850 ppm: rating of protection against epinasty ([1]; scale 0 to 10): 10(@850
Spray @10 ppm: visual rating of protection against ethylene-induced epinasty [2]: 0

C[Si](C)(C)CCCCCCC1C=C1 [Compound 65, 6-(Trimethylsilyl)-hexylcycloprop-2-ene]
Gas @ 10 ppm: visual rating of protection against ethylene-induced epinasty [1]: 10
Spray @10 ppm: visual rating of protection against ethylene-induced epinasty [2]: 6

O=C(OCC1=CC1)c1ccco1 [Compound 47]
Gas @ 10 ppm: visual rating of protection against ethylene-induced epinasty [1]: 0
Gas @ 551 ppm: rating of protection against epinasty ([1]; gas 551 ppm (in cell), scale 0 to 10): 10(@551
Spray @10 ppm: visual rating of protection against ethylene-induced epinasty [2]: 0

CCCCCCCCC1=C(B(O)O)C1 [Compound 86, 2-Octyl-1-(boronic acid)-cyclopropene]
Gas @ 10 ppm: visual rating of protection against ethylene-induced epinasty [1]: 10
Spray @10 ppm: visual rating of protection against ethylene-induced epinasty [2]: 0

C1=C(CC2CCCCC2)C1 [Compound 23]
Gas @ 10 ppm: visual rating of protection against ethylene-induced epinasty [1]: 10
Spray @10 ppm: visual rating of protection against ethylene-induced epinasty [2]: 10

C1=C(CCc2ccccc2)C1 [Compound 18]
Gas @ 10 ppm: visual rating of protection against ethylene-induced epinasty [1]: 10
Spray @10 ppm: visual rating of protection against ethylene-induced epinasty [2]: 6

CC1(CCc2ccccc2)C=C1 [Compound 19]
Gas @ 10 ppm: visual rating of protection against ethylene-induced epinasty [1]: 2
Gas @ 1000 ppm: visual rating of protection against ethylene-induced epinasty [1]: 7.5
Spray @10 ppm: visual rating of protection against ethylene-induced epinasty [2]: 2

COc1ccc(OCC2(C)C=C2)cc1 [Compound 16]
Gas @ 10 ppm: visual rating of protection against ethylene-induced epinasty [1]: 3.75
Gas @ 500 ppm: rating of protection against epinasty ([1]; scale 0 to 10): 10^c^
Spray @10 ppm: visual rating of protection against ethylene-induced epinasty [2]: 4.5

1-((2-Carboxy-N-morpholino)ethyl)-cyclopropene [Compound 15]
Gas @ 10 ppm: visual rating of protection against ethylene-induced epinasty [1]: 10
Spray @10 ppm: visual rating of protection against ethylene-induced epinasty [2]: 0

CCC1=C(COc2cccc(C(F)(F)F)c2)C1 [Compound 37, 1-(3-trifluoromethylphenoxymethyl)-2-ethylcyclopropene]
Gas @ 10 ppm: visual rating of protection against ethylene-induced epinasty [1]: 0
Gas @ 1000 ppm: visual rating of protection against ethylene-induced epinasty [1]: 2
Spray @10 ppm: visual rating of protection against ethylene-induced epinasty [2]: 0

CCCCCCCCCC1(C)C=C1 [Compound 73, 3-Methyl-3-nonyl-cyclopropene]
Gas @ 10 ppm: visual rating of protection against ethylene-induced epinasty [1]: 0
Gas @ 1000 ppm: visual rating of protection against ethylene-induced epinasty [1]: 8
Spray @10 ppm: visual rating of protection against ethylene-induced epinasty [2]: 0

CCCC[Si](C)(C)C1=C(C)C1 [Compound 80, 1-(Butyldimethylsilyl)-2-methylcyclopropene]
Gas @ 10 ppm: visual rating of protection against ethylene-induced epinasty [1]: 0
Gas @ 1000 ppm: visual rating of protection against ethylene-induced epinasty [1]: 7
Spray @10 ppm: visual rating of protection against ethylene-induced epinasty [2]: 0

C[Si](C)(C)CCC1C=C1 [Compound 66, 2-(Trimethylsilyl)-ethylcycloprop-2-ene]
Gas @ 10 ppm: visual rating of protection against ethylene-induced epinasty [1]: 10
Spray @10 ppm: visual rating of protection against ethylene-induced epinasty [2]: 10

C1=C(CCCCCCCn2ccnc2)C1 [Compound 12, 7-(1-Imidazole)-1-heptylcyclopropene]
Gas @ 10 ppm: visual rating of protection against ethylene-induced epinasty [1]: 5.5
Gas, tested at 850 ppm: rating of protection against epinasty ([1]; scale 0 to 10): 10^b
Spray @10 ppm: visual rating of protection against ethylene-induced epinasty [2]: 3.5

From patent US20110190137A1, “METHOD TO INHIBIT ETHYLENE RESPONSES IN PLANTS” (priority 2003, published 2011)
